Results from US20230172925A1, “SKIN-CARE COMPOSITIONS AND USES THEREOF” (AHAVA - DEAD SEA LABORATORIES LTD., priority 2019, published 2023).

Legend:
Type in all cases: cell-based
[1] = test system: MatTek EFT-400 full thickness tissues; test: DNA microarray gene expression in skin equivalents, complex vs individual ingredients (Example 5); set-up: key to Genes up and downregulation in pathway: + = up-regulated; − = down-regulated; *non-significant down-regulation, thus, regulation is considered as non-affected (NA); conditions: for Up-Regulated Genes (number): cut off of two fold change of adjusted Fold Change, 48 hours
Experimental: MatTek EFT-400 full thickness tissues were used as the model for this study. Upon arrival, the full thickness tissues were placed into 6 wells plates with 2 ml of culture media and incubated overnight at 37±2° C. and 5±1% CO2. After this overnight incubation the culture media was replaced with 5 ml of fresh media and the tissues were treated topically with the test materials prepared in distilled water as follows:
After the application of the test materials the tissues were incubated at 37±2° C. and […] for 48 hours.
At the end of the treatment period, the tissues were rinsed and transferred to a 2 ml centrifuge tube containing 700 μl of lysis buffer and homogenized. After centrifuging at 14,000×g for 10 minutes at 4° C. the supernatant from each tube was transferred to a new 1.5 ml tube and mixed with and equal volume of 64% ethanol. After mixing the solutions was transferred to glass fiber filter cartridges and the cartridges were loaded into a 1.5 ml collection tube centrifuged for 1 minute at 14,000 RPM in a Napco 2002 Microcentrifuge with a DA-6T fixed angle rotor. The flow through was discarded and any remaining mixture was loaded into the filter cartridge and the centrifugation process was repeated until all of the mixture had been processed. The filter was then washed to remove any residual cellular debris from the RNA bound to the glass fibers by subsequently applying 700 μl of wash solution 1 (1 time) and 500 μl of wash solution 2 (2 times) to the filter cartridge and centrifuging at 14,000 RPM for 1 minute to pass each wash through the cartridge. After each wash, the flow through was discarded. After the final wash one final spin was performed without wash solution to remove any residual wash solution in the filter cartridge. The RNA bound to the glass fibers within the cartridge was then eluted by applying 40 μl of TE buffer (10 mM Tris-HCl, 1 mM EDTA, preheated to 70-80° C.) to the cartridge and centrifuging the cartridge in a new collection tube at 14,000 RPM for one minute. The elution process was then repeated a second time using 20 μl of TE buffer.
First Strand cDNA Synthesis: To start the first strand synthesis, 10 μl of total RNA for each sample was added to a 600 μl PCR tube and the total volume of liquid in the tube will be adjusted to 11 μl with DEPC H2O. Next, 1 μl of T7 Oligo(dT) primer was added and the tube was incubated in a water bath at 70±2° C. for 10 minutes to denature the RNA and then placed on ice to allow the primers to anneal to the poly A ends of the mRNA. After cooling 2 μl of 10× first strand buffer, 1 μl of RNAse inhibitor and 4 μl of dNTP mix were added to each tube, and the tube was incubated at 42° C. in a hybridization oven (Labnet Problot). As soon as the tube was heated, 1 μl of Reverse Transcriptase was added and the tubes were returned to 42±2° C. for 2 hours. At the end of the two hours the tubes were briefly centrifuged to collect all of the fluid at the bottom of the tube and then placed on ice.
Two tubes were prepared for the labeling process, one for Cy3 labeling (green) and one for Cy5 labeling (red). To the Cy3 tube 2 μg of aRNA prepared from the untreated/control sample (the actual color assignment for each sample is not important, but for consistency Cy3 is normally used for the untreated sample) and enough DEPC H2O was added to bring the total volume up to 4 μl. To the Cy5 tube 2 μg of aRNA prepared from the sample treated with the test material and enough DEPC H2O was added to bring the total volume up to 4 μl. To both tubes 5 μl of ASAP labeling buffer was added along with 1 μl of the specific dye for the tube (Cy3 or Cy5). The tubes were incubated for 15 minutes at 85±2° C. At the end of the 15 minutes the tubes were placed on ice to cool them and then add 2.5 μl of ASAP stop solution was added to each tube.

IL-1α [2] = test: Human skin organ culture without UVB stressor, IL-1α secretion; conditions: no UVB, SDS 10% applied once
Experimental: (§1) Topical Exposure Till 96 Hours without External UVB Radiation as Stressor on Human Skin Model
(§2) Day 1: Topical application of 3 μl of each solution on the epidermis of each skin explant. Incubate for 24 hours. (SDS Irritation control: topical application of 3 ul SDS 10% was applied on the skin model at day 1 only. The rest of the days samples were untouched).
(§3) Day 2: Topical application of 3 μl of each solution on the epidermis of each skin explant. Incubate for 24 hours in fresh medium (medium was not collected). (UVB control: after 24 hours incubation with 3 μl H2O skin was irradiated with 200 mJ/cm2 UVB. The rest of the experiment days sample were topically applied with H2O, as control).
(§4) Day 3: Topical application of 3 μl of each solution on the epidermis of each skin explant. Incubate for 24 hours in fresh medium (medium was collected)—48 hours of total topical incubation.
(§5) Day 4: Topical application of 3 μl of each solution on the epidermis of each skin explant. Incubate for 24 hours in fresh medium (medium was collected)—72 hours of total topical incubation.
(§6) Day 5: Topical application of 3 μl of each solution on the epidermis of each skin explant. Incubate for 24 hours in fresh medium (medium was collected)—96 hours of total topical incubation. MTT assay was performed.
FIG. 9A illustrates the IL-1α secretion results in the medium. In FIG. 9A the IL-1α secretion of the H2O sample was used as a control (9.0±0.7 pg/ml […]) for each time point. FIG. 9B is a magnification of FIG. 9A.

TNFα [3] = test: Human skin organ culture without UVB stressor, TNFα secretion; conditions: no UVB; SDS 10% applied once; after incubation of 48 hours
Experimental: as §1, §2, §3, §4, §5, §6
FIG. 8 illustrates the TNFα secretion tested results. In FIG. 8 the TNFα secretion of the H2O sample was used as a control (0.35±0.05 pg/ml) for each time point.

[4] = test system: human skin explants (epidermis); test: Human skin organ culture without UVB stressor, topical exposure till 96 hours, viability by MTT assay; conditions: no UVB; SDS 10% applied only once; after 96 hours
Experimental: as §1, §2, §3, §4, §5
Day 5: Topical application of 3 μl of each solution on the epidermis of each skin explant. Incubate for 24 hours in fresh medium (medium was collected)—96 hours of total topical incubation. MTT assay was performed. […]
The viability of the various skin explants was measured by the MTT assay.

TNFα [5] = test: Human skin organ culture with UVB stressor, TNFα secretion in the medium; conditions: SDS 10%, one treatment, not irradiated
Experimental: (§7) Topical exposure till 48 hours in total (24 hr recovery following topical application+24 hr after exposure to UVB irradiation) with UVB radiation as stressor on human skin model
(§8) The following general procedure was used in the study:
(§9) Day 1: Topical application of 3 μl of each sample solution on the epidermis of each skin explant. Incubate for 24 hours. SDS 10% was applied only once, and was not farther irradiated with UVB.
(§10) Day 2: Skin explants were washed once with PBS and irradiated with UVB lamp at 200 mJ/cm2. After radiation it was incubated for 30 min and then topically apply each treatment (sample solution) again. Control was not irradiated under UVB light. UVB radiated control was without any treatment except radiation.
(§11) Day 3: Viability and Caspase3 activity were measured for the epidermis layer. The medium was collected for cytokines test.
FIG. 4 illustrates the TNFα secretion results in the medium as observed with 2 to 4 repetition of the tests. In FIG. 4 the TNFα secretion of the irradiated sample “UVB” was selected as 100% and it equals 53±30 pg/ml.

[6] = test system: human skin explants (epidermis); test: Human skin organ culture with UVB stressor, viability by MTT assay; conditions: SDS 10% applied only once, not irradiated, 24 hours of incubation
Experimental: as §7, §8, §9, §10, §11
FIG. 2 illustrates a flow diagram of topical exposure/treatment till 48 hours, 24 hr recovery following topical application +24 hr after exposure to UVB irradiation) with UVB radiation as stressor on human skin model experiment. In the Experiment the SDS irritation control sample was a skin explant that was topical applied with 3 μl SDS 10% solution at day 1 only.
The viability of the various skin explants was measured by the 5-dimethylthiazol-2-yl]-2,5-diphenyl tetrazolium bromide (MTT) assay.

IL-1α [7] = test: Human skin organ culture with UVB stressor, IL-1α secretion in the medium; conditions: SDS 10% applied once, incubation of 24 hours
Experimental: as §7, §8, §9, §10, §11
FIG. 5 illustrates the IL-1α secretion results in the medium as observed with 3 to 4 repetition of the tests. In FIG. 5 the IL-1α secretion of the irradiated sample “UVB” was selected as 100% and it equals 8.1±1.0 pg/ml.

[8] = KEGG_NUCLEOTIDE_EXCISION_REPAIR
[9] = KEGG_SIGNALING_PATHWAYS_REGULATING_PLURIPOTENCY_OF_STEM_CELLS
[10] = WIKI_ASSEMBLY_OF_COLLAGEN_FIBRILS_AND_OTHER_MULTIMERIC_STRUCTURES

NC(=O)c1cccnc1 [Niacinamide]
z-score ([1]; KEGG_APOPTOSIS): −0.6704
z-score ([1]; KEGG_BASE_EXCISION_REPAIR): 0.1343
Genes up and downregulation in pathway ([1]; KEGG_CELL_CYCLE): −
z-score ([1]; KEGG_CELL_CYCLE): −1.1781
z-score ([1]; KEGG_CIRCADIAN_RHYTHM_MAMMAL): 0.1529
z-score ([1]; KEGG_FATTY_ACID_BIOSYNTHESIS): −1.579
z-score ([1]; KEGG_FATTY_ACID_DEGRADATION): −0.3119
z-score ([1]; KEGG_GLYCOLYSIS_GLUCONEOGENESIS): 0.7976
z-score ([1]; KEGG_NF_KAPPA_B_SIGNALING_PATHWAY): −0.7978
Genes up and downregulation in pathway [1, 8]: −
z-score [1, 8]: −0.2743
z-score ([1]; KEGG_OXIDATIVE_PHOSPHORYLATION): 0.1959
Genes up and downregulation in pathway ([1]; KEGG_P53_SIGNALING_PATHWAY): −
z-score ([1]; KEGG_P53_SIGNALING_PATHWAY): −0.04133
z-score ([1]; KEGG_PROTEASOME): −1.4338
z-score ([1]; KEGG_RETINOL_METABOLISM): 0.7797
Genes up and downregulation in pathway [1, 9]: −
z-score [1, 9]: −1.5828
z-score ([1]; KEGG_SPHINGOLIPID_METABOLISM): −1.4272
z-score ([1]; KEGG_TH1_AND_TH2_CELL_DIFFERENTIATION): −0.6106
z-score ([1]; KEGG_TIGHT_JUNCTION): 1.7592
z-score ([1]; KEGG_TNF_SIGNALING_PATHWAY): −1.6603
z-score ([1]; KEGG_T_CELL_RECEPTOR_SIGNALING_PATHWAY): −0.515
z-score ([1]; KEGG_WNT_SIGNALING_PATHWAY): −0.8093
z-score ([1]; WIKI_ACTIVATION_OF_MATRIX_METALLOPROTEINASES): 1.5758
Genes up and downregulation in pathway [1, 10]: −
z-score [1, 10]: −0.4818
z-score ([1]; WIKI_COLLAGEN_BIOSYNTHESIS_AND_MODIFYING_ENZYMES): 1.0367
z-score ([1]; WIKI_COLLAGEN_DEGRADATION): 0.7489
z-score ([1]; WIKI_DEGRADATION_OF_THE_EXTRACELLULAR_MATRIX): 0.02517
Genes up and downregulation in pathway ([1]; WIKI_ELASTIC_FIBRE_FORMATION): −
z-score ([1]; WIKI_ELASTIC_FIBRE_FORMATION): −1.0086
z-score ([1]; WIKI_ELECTRON_TRANSPORT_CHAIN_IN_MITOCHONDRIA): −0.6757
z-score ([1]; WIKI_EXTRACELLULAR_MATRIX_ORGANIZATION): 0.2738
Genes up and downregulation in pathway ([1]; WIKI_KERATINIZATION): +
regulation of WIKI_KERATINIZATION pathway (Z-Score heatmap, in words) ([1]; WIKI_KERATINIZATION): up-regulated
z-score ([1]; WIKI_KERATINIZATION): 7.5403
z-score ([1]; WIKI_NRF2_PATHWAY): 2.1898
z-score ([1]; WIKI_RESPIRATORY_ELECTRON_TRANSPORT_ATP_SYNTHESIS): −0.7571
z-score ([1]; WIKI_SPHINGOLIPID_METABOLISM): −0.1492
Up-Regulated Genes (number) ([1]; 19254 genes evaluated): 133
Up-Regulated Genes (number) ([1]; second column of Table 6): 70

CCCCCCCCCCCCOS(=O)(=O)[O-].[Na+] [SDS]
IL-1α secretion level, times of the control value (IL-1α [2]; after 48 hours): 6.5 times of the control value
IL-1α secretion level, times of the control value (IL-1α [2]; after 72 hours and 96 hours): 10.6 times of the control value
TNFα secretion (TNFα [3]): below the detection lever
epidermis viability (MTT), % of the control value [4]: 15%
TNFα secretion (TNFα [5]): significant reduction
viability (MTT) of epidermis [6]: caused epidermis death
IL-1α secretion (IL-1α [7]): dramatically increased
